From US7241861B2, “High density lipoprotein-reactive peptides” (Japan Immunoresearch Laboratories Co., Ltd., priority 2001, dated 2007)

What was measured:
[1] = tested on: RAW264 cells; experiment: Cholesterol efflux test in RAW264 cells loaded with acetylated LDL; type: cell-based, mouse; conditions: foam with acetylated LDL; peptide 20, 2.0 or 0.2 μg/mL, 24 hours; supernatant cholesterol (FIG. 4)
Procedure: The aforementioned peptides were examined with regard to cholesterol efflux effect from RAW264 cells (a model of atherosclerosis).
Specifically, RAW264 cells (mouse monocytic leukemia cell strain) were added to DMEM medium that had been supplemented with 10% FBS, to thereby prepare a specimen having a concentration of 4×10^5 cells/mL. An aliquot of the specimen (1 mL) was added to each well of a 12-well plate, followed by culture for two days in a CO2 incubator (37° C.). The medium in each well was removed, and the cells in the well were washed once with 1 mL of DMEM containing 0.2% BSA and 20 mM glutamine (hereinafter referred to as “DMEM”). Subsequently, a solution of acetylated LDL in DMEM (40 μg/mL, 1 mL) was added to each well, followed by culture for 24 hours in a CO2 incubator (37° C.), whereby acetylated LDL entered into the cells. The cells were washed twice with PBS supplemented with 0.2% BSA. Thereafter, a solution of dibutyl cAMP in DMEM (0.3 mM, 1 mL) was added to each well, followed by incubation for 2 hours in a CO2 incubator (37° C.).
The test peptide (20 μL) was added to each well so as to attain a final concentration of 20, 2.0, or 0.2 μg/mL, followed by culture for 24 hours in a CO2 incubator (37° C.).
After 24 hours, the supernatant of each well was collected in a microtube, and the microtube was centrifuged for five minutes at 10,000 rpm. The cholesterol level of the supernatant was measured by means of the autoanalyzer described above.
Each test peptide was dissolved in DMSO (5 mg/mL), and the thus-formed solution was diluted with DMEM so as to attain a concentration of 1 mg/mL. Subsequently, the resultant solution was diluted 10-fold or 100-fold with DMEM, to thereby prepare a test sample. Moreover, in order to prepare a control sample, only DMSO was diluted with DMEM so as to attain a final concentration of 0.4, 0.04, or 0.004%; and in order to prepare a positive control sample, delipid HDL was diluted with DMEM so as to attain a concentration of 2.5, 5.0, or 10 μg/mL.

[2] = tested on: HDL cholesterol; experiment: Reactivity with HDL: HDL sample reacted with peptide-bound affinity gel, analysis of unbound fraction; type: binding, Human; conditions: for reduction of total cholesterol level of HDL: Example 5, total cholesterol level of applied HDL sample 12.7 mg/dl
Procedure: The peptide obtained in (1) above (B100FL, 0.1 mg) was added to affinity gel (25 μL) to which an anti-apo B-100 monoclonal antibody (JI-H) had been immobilized, whereby a B100FL-bound affinity gel was prepared. A control gel was prepared by treating gel with PBS (not containing B100FL) in a manner similar to the above.
Human plasma (1 mL) was added to affinity gel (2 mL) to which an anti-apo A-I monoclonal antibody had been immobilized, to thereby cause HDL to be specifically bound to the gel. The bound HDL was eluted with 3M sodium thiocyanate, and the buffer of the thus-obtained eluent was changed to PBS through use of a column for desalting, to thereby prepare an HDL sample.
The aforementioned anti-apo A-I monoclonal antibody immobilized affinity gel and anti-apo B-100 monoclonal antibody (JI-H) immobilized affinity gel were prepared in accordance with a conventional method (Japanese Patent Publication (kokoku) No. 7-104351).
The HDL sample (containing 20 μg of apo A-I) was reacted with the B100FL-bound affinity gel for 30 minutes at room temperature. Subsequently, the reaction mixture was left to stand for 15 minutes to thereby cause the gel to precipitate, to thereby remove the gel from the reaction mixture.
Total cholesterol level: Total cholesterol level was determined with a reagent for measuring cholesterol level (L-TCII, Kyowa Medex Co., Ltd.) by means of an autoanalyzer (TBA20R; Toshiba).
Lipoprotein analysis: Lipoprotein was analyzed through HPLC of a lipoprotein analysis system (Lipopropax XL, eluent: TSK eluent LP-1, 1 mL/min., sample volume: 100 μL; Tosoh) by monitoring colors produced by cholesterol.
Protein concentration: Each protein concentration was determined by measuring absorbance (OD280); or through the Lowry method in which each sample (which had been delipidized with ethanol-ether) was subjected to color reaction.
Protein analysis: Protein was analyzed by SDS-gel electrophoresis. Specifically, each sample was subjected to delipidizing treatment and solubilized with 1% SDS, followed by treatment with a buffer (2% SDS/10% glycerol/0.005% BPB/20% 2-mercaptoethanol), to thereby prepare a sample for electrophoresis. The resultant sample was electrophoresed in a 4-20% gradient gel in accordance with a conventional method.
In a manner similar to that described in Example 1 (3), reactivity of PS509 (synthesized in Example 2) with HDL was examined (as a test peptide, B-100FL or PS509 was employed, and the total cholesterol level of the applied HDL sample was 12.7 mg/dl).

[3] = tested on: quail arteriosclerosis model; experiment: Effect test by use of an arteriosclerosis model (high-cholesterol-fed quails, aortic arch histology); type: in vivo
Description: Cholesterol (Wako Pure Chemical Industries, Ltd.) and corn oil (Corn Germ Oil 100; Ajinomoto Co., Inc.) were incorporated into a commercially available feed (product of Natural Pet Foods, “Chicks and nestlings (Quail)”) so as to attain final concentrations of 2% and 15%, respectively, to thereby prepare a high-cholesterol feed.
Healthy quails were bred while being allowed to freely intake the high-cholesterol feed for eight weeks. From five weeks after the beginning of breeding, a solution of the test peptide (B-100FL) in saline (1.0 mg/mL) was administered to the brachial (wing) vein (200 μL; 200 μg/body) twice a week at the interval of two through three days. In a manner similar to that described above, only saline was administered to the quails of a control group.
After the quails had been bred for eight weeks, the head of each quail was cut for exsanguination, and an aorta sample was obtained. The aorta sample was immediately fixed in a fixing solution (10% formalin) for three days. Subsequently, a tissue specimen (a frozen section having a thickness of 4 μm) of the aortic arch (where arteriosclerosis foci are most likely to occur) was prepared. The tissue specimen was subjected to hematoxylin-and-eosin staining (routine staining), and to oil-red staining (fat staining), followed by examination under a microscope.

[4] = tested on: anti-apo B-100 monoclonal antibody (JI-H); experiment: Reactivity with anti-apo B-100 monoclonal antibody (JI-H) by ELISA on peptide-coated plate; type: binding; conditions: OD450 vs immobilized peptide concentration (FIG. 1)
Description: (2) Reactivity with anti-apo b-100 Monoclonal Antibody (JI-H: J. Clin. Ligand Assay, 19 (3), 177 (1999))
The reactivity was confirmed through ELISA in accordance with a conventional method by using a plate coated with the peptide obtained above (B100FL) (see Japanese Patent Application Laid-Open (kokai) No. 4-104798).

[5] = 200 μg/body i.v. twice a week from week 5 to 8, aortic arch section

DFEVAEKINA FRAKVHEL IE R [P21]
cholesterol efflux effect from RAW264 cells [1]: not to exhibit the effect

EKINA FRAKVHEL IE R [PS508]
cholesterol efflux effect from RAW264 cells [1]: not to exhibit the effect

FERINDVLEHVKHFVINLIGDFEVAEKINA (FERINDVLEHVKHFVINLIGDFEVAEKINA) [PS509, Apo B-100 position 2,307–2,336]
reduction of total cholesterol level of HDL [2]: about 48 percentage points
cholesterol efflux effect from RAW264 cells [1]: strong cholesterol efflux effect

LLDQLGTTIS FERIND (LLDQLGTTISFERIND) [PS507, Apo B-100 position 2,297–2,312]
cholesterol efflux effect from RAW264 cells [1]: not to exhibit the effect

LLDQLGTTISFERINDVLEHVKHF (LLDQLGTTISFERINDVLEHVKHF) [PS506, Apo B-100 position 2,297–2,320]
cholesterol efflux effect from RAW264 cells [1]: not to exhibit the effect

LLDQLGTTISFERINDVLEHVKHFVINLIG (LLDQLGTTISFERINDVLEHVKHFVINLIG) [PS505, Apo B-100 position 2,297–2,326]
cholesterol efflux effect from RAW264 cells [1]: strong cholesterol efflux effect

LLDQLGTTISFERINDVLEHVKHFVINLIGDFEVAEKINAFRAKVHEL IE R (LLDQLGTTISFERINDVLEHVKHFVINLIGDFEVAEKINAFRAKVHELIER) [P51, 51 amino acid residues, the 2,297th to the 2,347th amino acid residues of apo B-100]
lipid accumulation in the internal tunica ([3]; 200 μg/body i.v. (wing vein) twice a week from week 5 to 8 of high-cholesterol feed, aortic arch section): a small amount of lipid accumulation was observed
morphological disorder of the vessel internal tunica [3, 5]: no morphological disorder
thickening of the internal tunica and lipid infiltration into the middle tunica [3, 5]: absent
reduction of total cholesterol level of HDL [2]: about 72 percentage points
peak attributed to cholesterol (HDL-C) in lipoprotein analysis ([2]; FIG. 2, HDL sample treated with B100FL-bound gel): does not include a peak
total cholesterol level relative to HDL sample treated with the control gel ([2]; HDL sample treated with B100FL-bound gel vs control gel): about 1/15
HDL-C ([2]; HDL-cholesterol by lipoprotein analysis (HPLC) of fraction that did not bind to the B100FL gel): 243.2 Area
interaction with cholesterol and cholesterol ester of HDL ([2]; conclusion from cholesterol, lipoprotein and SDS-gel analysis): has an effect of effluxing cholesterol and cholesterol ester from apoprotein particles of HDL
Cholesterol (total cholesterol level) ([2]; fraction that did not bind to the B100FL gel, HDL sample containing 20 μg apo A-I, 30 min room temperature): 0.25 mg/dL
cholesterol efflux effect from RAW264 cells [1]: strong cholesterol efflux effect
reactivity with JI-H [4]: specific reactivity
